From patent US20160038438A1, “COMBINATION OF NORDIHYDROGUAIARETIC ACID AND AN AMINOGLYCOSIDE” (HELPERBY THERAPEUTICS LIMITED, priority 2013, published 2016)

How the values were obtained:
[1] = system: enterobacteria; conditions: cited from earlier work
[2] = system: log phase S. aureus; assay: Chequerboard method, HT013006 (NDGA) with gentamycin, log phase S. aureus; assay type: cell-based, Staphylococcus aureus; conditions: for MIC before combination: drug alone, log phase S. aureus
Procedure: Log phase growth of S. aureus was carried out as described in the art. HT013006 in combination with gentamycin against log phase S. aureus using chequerboard method The effects of combination were examined by calculating the fractional inhibitory concentration index (FICI) of each combination, as follows: (MIC of drug A, tested in combination)/(MIC of drug A, tested alone)+(MIC of drug B, tested in combination)/(MIC of drug B, tested alone). The interaction of the combination was defined as showing synergy if the FICI was ≦0.5, no interaction if the FICI was >0.5 but <4.0 and antagonism if the FICI was >4.0.

[3] = system: log phase Staphylococcus aureus Oxford strain; assay: Time kill, HT013006 with neomycin, log phase S. aureus Oxford strain; assay type: cell-based
Procedure: Using the methods described in Example 2, HT013006 was tested in combination with neomycin against log phase Staphylococcus aureus Oxford strain over a time period of 24 hours.

[4] = system: log phase methicillin resistant Staphylococcus aureus clinical strain; assay: Time kill, HT013006 with gentamycin, log phase MRSA clinical strain; assay type: cell-based
[5] = system: log phase S. aureus; assay: Time kill curve, HT013006 alone and with gentamycin, log phase S. aureus; assay type: cell-based, Staphylococcus aureus
Description: HT013006 alone and in combination with gentamycin against log phase S. aureus using time kill curve.

[6] = system: log phase Staphylococcus aureus gentamycin resistant clinical strain; assay: Time kill, HT013006 with gentamycin, gentamycin resistant clinical strain; assay type: cell-based
Procedure: • 1. HT013006 at 16 and 8 μg/ml had no activities against log phase MRSA. • 2. […] The minimal concentration of HT013006 was 2 μg/ml when combined with 0.5 and 0.25 μg/ml of gentamycin. • (b) log phase phase Staphylococcus aureus gentamycin resistant clinical strain by time kill (340)

[7] = system: yeast pathogens; conditions: against yeast pathogens; cited from earlier work
[8] = HT013006 alone at 16, 8, 4 and 2 μg/ml

## Cc1cn([C@H]2C[C@H](N=[N+]=[N-])[C@@H](CO)O2)c(=O)[nH]c1=O [AZT, zidovudine]
[1]; against enterobacteria
  interaction with the aminoglycosides amikacin and gentamycin: additive or synergistic activity
[1]; some enterobacteria
  effect on bacteria: bactericidal effect

## CC(Cc1ccc(O)c(O)c1)C(C)Cc1ccc(O)c(O)c1 (stereo not shown) [HT013006, nordihydroguaiaretic acid]
[2]; combined with 0.25 μg/ml of gentamycin
  MIC of HT013006 in combination: 1 µg/mL
[2]
  MIC before combination: 64 µg/mL
[3]; HT013006 alone at 16, 8, 4 and 2 μg/ml, 24 hours
  activity in time kill: no activities
[3]; in combination with neomycin
  minimal concentration of HT013006 which showed maximal enhanced effect: 8 µg/mL
[4]; HT013006 alone at 16 and 8 μg/ml, log phase MRSA
  activity in time kill: no activities
[4]; combined with 0.5 and 0.25 μg/ml of gentamycin
  minimal concentration of HT013006 in combination: 2 µg/mL
[5]; [8]
  activity in time kill: no activities
[5]; HT013006 alone at 16 and 8 μg/ml
  activity in time kill: no activities
[6]; [8]
  activity in time kill: no activities
[6]; combined with 4 and 2 μg/ml of gentamycin
  minimal concentration of HT013006 which showed enhanced activities: 2 µg/mL
[7]
  effect on amphotericin B activity: enhancing the effect of amphotericin B

## gentamycin [reference compound]
[2]; combined with 16 μg/ml of HT013006
  MIC of gentamycin in combination: 0.0078 µg/mL
[2]
  MIC before combination: 0.5 µg/mL
[5]; gentamycin 0.0625 μg/ml
  activity in time kill: no activity
[5]; gentamycin 0.125 μg/ml
  activity in time kill: inhibition over 8 hours of treatment, then regrowth was seen
[5]; gentamycin 0.25 μg/ml
  regrowth: regrowth was seen after 4 hours
[5]; gentamycin 0.25 μg/ml, at 4 hours of incubation
  kill: 3 log
[5]; gentamycin 0.5 μg/ml
  regrowth: regrowth was seen after 2 hours
[5]; gentamycin 0.5 μg/ml, at 2 hours of incubation
  kill: 3.5 log
[6]; gentamycin at 4, 2, 1 and 0.5 ug/ml, strain 17
  activity in time kill: no activities
